Assay results published in patent US20080255192A1, “Methods and Compositions for Selectin Inhibition” (Wyeth, priority 2007, published 2008).

molecular target: T1, P-selectin/PSGL-1 interaction (Homo sapiens, UniProt P16109); test: Biacore P-Selectin/PSGL-1 Inhibition Assay (surface plasmon resonance); format: binding; conditions: 250 uM test compound, 500 nM P.LE, immobilized PSGL-1 19ek, 10% DMSO, pH 7.4
T1 construct: comprised of the lectin and epidermal growth factor-like (EGF) domains expressed in CHO cells; made in house; host or cells: CHO cells (P-LE)
T1 sequence (P16109 42-198): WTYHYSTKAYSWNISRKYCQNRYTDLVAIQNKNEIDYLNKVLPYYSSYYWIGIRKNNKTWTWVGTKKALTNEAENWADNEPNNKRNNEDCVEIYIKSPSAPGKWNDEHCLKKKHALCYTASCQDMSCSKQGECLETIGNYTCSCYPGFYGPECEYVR
Experimental: Surface plasmon resonance assays were performed on a Biacore 3000 instrument (Biacore Inc. Piscataway, N.J.) at 25° C. at a flow rate of 30 μL/minute and each assay consisted of a 60-second equilibration, a 60-μL sample injection (kinject), and a 300-second dissociation.
A purified, monomeric, truncated form of human PSGL-1, “19ek”, that contained all the necessary P-selectin binding determinants (see Goetz, et al., J. Cell Biol., 1997, 137: 509-519; and Sako, et al., Cell, 1995, 83: 323-331) was biotinylated via amine chemistry (Sulfo-NHS-LC-Biotin, Peirce) at a unique C-terminal lysine residue (see Somers, et al., Cell, 2000, 103: 467-479) and immobilized on a Biacore SA sensor chip (Biacore Inc.), using an HBS-EP buffer (Biacore Inc.), and the target 600-700 RU. The coated chip was re-equilibrated with an HBS-P buffer (Biacore Inc.) to which 1 mM CaCl2 and 1 mM MgCl2 (both from Fisher) were added to ensure sufficient calcium for the calcium-dependent interaction between the receptor and the ligand.
Test compounds were incubated for 1 hour in a 1.1× Biacore assay buffer. Each solution was centrifuged through a 0.2 µm filter, using a 96-well plate format (Millipore). Glycyrrhizin tri-sodium salt (TCI) was prepared as a positive control in parallel with the test compounds, in the same manner described above.
A soluble recombinant truncated form of human P-selectin, P-LE, comprised of the lectin and epidermal growth factor-like (EGF) domains expressed in CHO cells (see Somers, et al., Cell, 2000, 103: 467-479) was added to each filtered test compound solution. Final concentrations of reagents were 500 nM P.LE, 250 or 500 μM test compound (depending on structure) or 1 mM glycyrrhizin, 10% DMSO, and 1× Biacore buffer ([…], 150 mM NaCl, 1 mM CaCl2, and 1 mM MgCl2 (all reagents from Fisher)), with a pH of 7.4. Compounds active at 250 μM were titrated to further define activity. Test samples were supplied to the Biacore instrument in a 96-well plate.
The Biacore raw data file was exported as a text file to an Excel spreadsheet, where the buffer blanks bracketing the samples were averaged for each Biacore instrument flow cell (Fc), and subtracted from the averaged uninhibited P.LE samples and from all the other samples. The reference signal from Fcl (uncoated) was then subtracted from its corresponding active (coated) signal for each injection, a process known as double referencing (see Myszka, J. Mol. Recognit., 1999, 12(5): 279-284). The percent inhibition of binding was calculated by dividing the reference-subtracted inhibited signal by the reference-subtracted uninhibited signal, subtracting this value from 1, and multiplying the resulting value by 100. The replicate percent inhibition values were averaged and expressed as the mean ±standard deviation. The inter-experiment standard deviation of calculated percent inhibitions in the Biacore assay was ±5.

Question: For CC(c1ccc(Cl)cc1)c1nc2c3c(ccc2c(C(=O)O)c1O)CCCC3 (stereo not shown) [Compound 124, 2-(1-(4-chlorophenyl)ethyl)-3-hydroxy-7,8,9,10-tetrahydrobenzo[h]quinoline-4-carboxylic acid], which inhibition at 250 µM is on record?
Answer: ≤ 10%

Question: O=C(O)c1c(O)c(C2(c3ccc(Cl)cc3)CC2)nc2ccc(Cl)cc12 [Compound 22, 6-chloro-2-(1-(4-chlorophenyl)cyclopropyl)-3-hydroxyquinoline-4-carboxylic acid] was tested. Which inhibition at 250 µM did it give?
Answer: 26%

Question: How did the inhibition at 250 µM turn out when CC(C)(c1ccc(Cl)cc1)c1nc2c3c(ccc2c(C(=O)O)c1O)CCCC3 [Compound 120, 2-(2-(4-Chlorophenyl)propan-2-yl)-3-hydroxy-7,8,9,10-tetrahydrobenzo[h]quinoline-4-carboxylic acid] was run?
Answer: ≤ 10%

Question: Which inhibition at 250 µM does the source give for O=C(O)c1c(O)c(C2(c3ccccc3)CC2)nc2c(-c3ccsc3)cccc12 [Compound 35, 3-hydroxy-2-(1-phenylcyclopropyl)-8-(thiophen-3-yl)quinoline-4-carboxylic acid] here?
Answer: 70%

Question: CCc1cc(C(F)(F)F)c2nc(C3(c4ccc(Cl)cc4)CC3)c(O)c(C(=O)O)c2c1 [Compound 98] was tested. Which inhibition at 250 µM did it give?
Answer: ≤ 10%

Question: For CC(C)c1cccc2c(C(=O)O)c(O)c(C3(c4ccccc4)CC3)nc12 [Compound 44, 3-hydroxy-8-isopropyl-2-(1-phenylcyclopropyl)quinoline-4-carboxylic acid], which inhibition at 250 µM is on record?
Answer: 63%

Question: O=C(O)c1c(O)c(C2(c3ccccc3)CC2)nc2ccc(C(O)(C(F)(F)F)C(F)(F)F)cc12 [Compound 48, 6-(1,1,1,3,3,3-hexafluoro-2-hydroxypropan-2-yl)-3-hydroxy-2-(1-phenylcyclopropyl)quinoline-4-carboxylic acid] was tested. Which inhibition at 250 µM did it give?
Answer: ≤ 10%

Question: For CC(c1ccccc1)c1nc2c(C(F)(F)F)cccc2c(C(=O)O)c1O (stereo not shown) [Compound 123, 3-hydroxy-2-(1-phenylethyl)-8-(trifluoromethyl)quinoline-4-carboxylic acid], which inhibition at 250 µM is on record?
Answer: 49%

Question: How did the inhibition at 250 µM turn out when CCC(C)c1cccc2c(C(=O)O)c(O)c(C3(c4ccccc4)CC3)nc12 (stereo not shown) [Compound 15, 8-sec-butyl-3-hydroxy-2-(1-phenylcyclopropyl)quinoline-4-carboxylic acid] was run?
Answer: 63%

Question: O=C(O)c1c(O)c(C2(c3ccc(C(F)(F)F)cc3)CC2)nc2ccc(OC(F)(F)F)cc12 [Compound 90, 3-hydroxy-6-(trifluoromethoxy)-2-(1-(4-(trifluoromethyl)phenyl)cyclopropyl)quinoline-4-carboxylic acid] was tested. Which inhibition at 250 µM did it give?
Answer: 47%

Question: How did the inhibition at 250 µM turn out when CCc1cc(C(F)(F)F)c2nc(C3(c4ccccc4)CC3)c(O)c(C(=O)O)c2c1 [Compound 104, 6-ethyl-3-hydroxy-2-(1-phenylcyclopropyl)-8-(trifluoromethyl)quinoline-4-carboxylic acid] was run?
Answer: 40%

Question: O=C(O)c1c(O)c(C2(c3ccc(C(F)(F)F)cc3)CC2)nc2c3c(ccc12)CCCC3 [Compound 93, 3-hydroxy-2-(1-(4-(trifluoromethyl)phenyl)cyclopropyl)-7,8,9,10-tetrahydrobenzo[h]quinoline-4-carboxylic acid] was tested. Which inhibition at 250 µM did it give?
Answer: 33%

Question: How did the inhibition at 250 µM turn out when O=C(O)c1c(O)c(C2(c3ccccc3)CC2)nc2c(OC(F)(F)F)cccc12 [Compound 46, 3-hydroxy-2-(1-phenylcyclopropyl)-8-(trifluoromethoxy)quinoline-4-carboxylic acid] was run?
Answer: ≤ 10%

Question: With O=C(O)c1c(O)c(C2(c3ccc(Cl)cc3)CC2)nc2c(C(F)(F)F)cc(Br)cc12 [Compound 103, 6-bromo-2-(1-(4-chlorophenyl)cyclopropyl)-3-hydroxy-8-(trifluoromethyl)quinoline-4-carboxylic acid] as the compound, how does the inhibition at 250 µM read?
Answer: ≤ 10%

Question: With O=C(O)c1c(O)c(C2(c3ccc(Br)cc3)CC2)nc2c(C(F)(F)F)cccc12 [Compound 53, 2-(1-(4-bromophenyl)cyclopropyl)-3-hydroxy-8-(trifluoromethyl)quinoline-4-carboxylic acid] as the compound, how does the inhibition at 250 µM read?
Answer: 64%

Question: How did the inhibition at 250 µM turn out when CCc1cccc2c(C(=O)O)c(O)c(C3(c4ccc(Cl)cc4)CC3)nc12 [Compound 2, 2-(1-(4-chlorophenyl)cyclopropyl)-8-ethyl-3-hydroxyquinoline-4-carboxylic acid] was run?
Answer: 67%

Question: With Cc1ccc2c(C(=O)O)c(O)c(C(C)(C)c3ccccc3)nc2c1C [Compound 115, 3-hydroxy-7,8-dimethyl-2-(2-phenylpropan-2-yl)quinoline-4-carboxylic acid] as the compound, how does the inhibition at 250 µM read?
Answer: 60%

Question: With O=C(O)c1c(O)c(C2(c3ccc(Cl)cc3)CC2)nc2c(C(F)(F)F)cc(-c3ccccc3)cc12 [Compound 96, 2-(1-(4-chlorophenyl)cyclopropyl)-3-hydroxy-6-phenyl-8-(trifluoromethyl)quinoline-4-carboxylic acid] as the compound, how does the inhibition at 250 µM read?
Answer: ≤ 10%

Question: How did the inhibition at 250 µM turn out when CCc1ccc2nc(C3(c4ccc(F)cc4)CC3)c(O)c(C(=O)O)c2c1 [Compound 70, 6-ethyl-2-(1-(4-fluorophenyl)cyclopropyl)-3-hydroxyquinoline-4-carboxylic acid] was run?
Answer: 10%

Question: CCC(c1ccccc1)c1nc2c(C)c(C)ccc2c(C(=O)O)c1O (stereo not shown) [Compound 128, 3-Hydroxy-7,8-dimethyl-2-(1-phenylpropyl)quinoline-4-carboxylic acid] was tested. Which inhibition at 250 µM did it give?
Answer: 64%

Question: How did the inhibition at 250 µM turn out when O=C(O)c1c(O)c(C2(c3ccccc3)CC2)nc2c(C3CC3)cccc12 [Compound 110, 8-cyclopropyl-3-hydroxy-2-(1-phenyl-cyclopropyl)-quinoline-4-carboxylic acid] was run?
Answer: 13%

Question: For O=C(O)c1c(O)c(C2(c3ccc(Cl)cc3)CC2)nc2cc(Cl)ccc12 [Compound 16, 7-chloro-2-(1-(4-chlorophenyl)cyclopropyl)-3-hydroxyquinoline-4-carboxylic acid], which inhibition at 250 µM is on record?
Answer: 28%

Question: How did the inhibition at 250 µM turn out when Cc1ccc2c(C(=O)O)c(O)c(C3(c4ccc(Cl)cc4)CC3)nc2c1C [Compound 40, 2-(1-(4-chlorophenyl)cyclopropyl)-3-hydroxy-7,8-dimethylquinoline-4-carboxylic acid] was run?
Answer: 53%

Question: For Cc1cc(C)c2nc(C3(c4ccccc4)CC3)c(O)c(C(=O)O)c2c1 [Compound 64, 3-hydroxy-6,8-dimethyl-2-(1-phenylcyclopropyl)quinoline-4-carboxylic acid], which inhibition at 250 µM is on record?
Answer: 20%

Question: Which inhibition at 250 µM does the source give for Cc1cc(C(F)(F)F)c2nc(C3(c4ccc(Cl)cc4)CC3)c(O)c(C(=O)O)c2c1 [Compound 94, 2-(1-(4-chlorophenyl)cyclopropyl)-3-hydroxy-6-methyl-8-(trifluoromethyl)quinoline-4-carboxylic acid] here?
Answer: 65%

Question: For COc1ccc2nc(C3(c4ccc(Cl)cc4)CC3)c(O)c(C(=O)O)c2c1 [Compound 20, 2-(1-(4-chlorophenyl)cyclopropyl)-3-hydroxy-6-methoxyquinoline-4-carboxylic acid], which inhibition at 250 µM is on record?
Answer: ≤ 10%

Question: For CCc1cccc2c(C(=O)O)c(O)c(C3(c4ccc(F)cc4)CC3)nc12 [Compound 65, 8-ethyl-2-(1-(4-fluorophenyl)cyclopropyl)-3-hydroxyquinoline-4-carboxylic acid], which inhibition at 250 µM is on record?
Answer: 31%

Question: How did the inhibition at 250 µM turn out when O=C(O)c1c(O)c(C2(c3ccc(C(F)(F)F)cc3)CC2)nc2c(C(F)(F)F)cccc12 [Compound 52, 3-hydroxy-8-(trifluoromethyl)-2-(1-(4-(trifluoromethyl)phenyl)cyclopropyl)quinoline-4-carboxylic acid] was run?
Answer: 47%

Question: With O=C(O)c1c(O)c(C2(c3ccc(Cl)cc3)CC2)nc2ccccc12 [Compound 8, 2-(1-(4-chlorophenyl)cyclopropyl)-3-hydroxyquinoline-4-carboxylic acid] as the compound, how does the inhibition at 250 µM read?
Answer: ≤ 10%

Question: With Cc1ccc2nc(C3(c4ccc(Cl)cc4)CC3)c(O)c(C(=O)O)c2c1 [Compound 19, 2-(1-(4-chlorophenyl)cyclopropyl)-3-hydroxy-6-methylquinoline-4-carboxylic acid] as the compound, how does the inhibition at 250 µM read?
Answer: ≤ 10%

Question: With O=C(O)c1c(O)c(C2(c3ccc(Cl)cc3)CC2)nc2ccc(C(F)(F)F)cc12 [Compound 24, 2-(1-(4-chlorophenyl)cyclopropyl)-3-hydroxy-6-(trifluoromethyl)quinoline-4-carboxylic acid] as the compound, how does the inhibition at 250 µM read?
Answer: 34%
